According to patent publication US12528786B2, “Plasma kallikrein inhibitors” (Merck Sharp & Dohme LLC, priority 2020, dated 2026):

These compounds were tested against T1, Human plasma kallikrein (Homo sapiens, UniProt P03952) (assay: Kallikrein Assay (fluorogenic substrate hydrolysis, AFC release)). Details: purified Human plasma kallikrein 0.5 nM; substrate Acetyl-K—P—R-AFC 100 mM; 50 mM HEPES pH 7.4.
T1 construct: yields a heavy chain (371 amino acids) and a light chain (248 amino acids); purchased Enzyme Research Laboratories
Type: biochemical
Method: The effectiveness of a compound of the present invention as an inhibitor of Kallikrein can be determined using a relevant purified serine protease, and an appropriate synthetic substrate. The rate of hydrolysis of the chromogenic or fluorogenic substrate by the relevant serine protease was measured both in the absence and presence of compounds of the present invention. Assays were conducted at room temperature or at 37° C. […] A decrease in the rate of fluorescence change in the presence of inhibitor is indicative of enzyme inhibition. Such methods are known to one skilled in the art. The results of this assay are expressed as the half-maximal inhibitory concentrations (IC50), or the inhibitory constant, Ki.
Kallikrein determinations were made in 50 mM HEPES buffer at pH 7.4 containing 150 mM NaCl, 5 mM CaCl2), and 0.1% PEG 8000 (polyethylene glycol; Fisher Scientific). Determinations were made using purified Human plasma kallikrein at a final concentration of 0.5 nM (Enzyme Research Laboratories) and the synthetic substrate, Acetyl-K—P—R-AFC (Sigma #C6608) at a concentration of […].
Activity assays were performed by diluting a stock solution of substrate at least tenfold to a final concentration ≤0.2 Km into a solution containing enzyme or enzyme equilibrated with inhibitor. Times required to achieve equilibration between enzyme and inhibitor were determined in control experiments. The reactions were performed under linear progress curve conditions and fluorescence increase measured at 405 Ex/510 Em nm. Values were converted to percent inhibition of the control reaction (after subtracting 100% Inhibition value). IC50 was determined by inflection point from a four parameter logistic curve fit. Ki was calculated using the Cheng Prusoff equation, Ki=IC50/(1+([S]/Km)).

T1 sequence (P03952 391-638 limits assumed): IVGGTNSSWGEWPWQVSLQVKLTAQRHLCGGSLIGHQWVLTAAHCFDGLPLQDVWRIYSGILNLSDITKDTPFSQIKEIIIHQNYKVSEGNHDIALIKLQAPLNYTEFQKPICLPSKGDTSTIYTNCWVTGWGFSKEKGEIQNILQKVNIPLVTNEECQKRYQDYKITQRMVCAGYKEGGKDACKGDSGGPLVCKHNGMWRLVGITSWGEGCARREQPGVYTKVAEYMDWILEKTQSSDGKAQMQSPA
T1 sequence (P03952 20-390 partner limits assumed): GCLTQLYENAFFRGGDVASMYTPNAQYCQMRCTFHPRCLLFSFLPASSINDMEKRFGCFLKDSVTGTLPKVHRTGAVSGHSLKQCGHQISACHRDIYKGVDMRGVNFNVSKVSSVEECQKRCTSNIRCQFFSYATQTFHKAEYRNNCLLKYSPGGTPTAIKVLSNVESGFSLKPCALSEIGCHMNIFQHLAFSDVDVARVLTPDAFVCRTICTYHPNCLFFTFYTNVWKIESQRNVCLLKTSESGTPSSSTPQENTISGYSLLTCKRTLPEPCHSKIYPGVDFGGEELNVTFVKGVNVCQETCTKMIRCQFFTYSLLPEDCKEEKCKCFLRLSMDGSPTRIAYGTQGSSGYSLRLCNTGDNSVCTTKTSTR

Row | Compound | IC50 [nM]
1 | Cc1cc(N2C[C@H]3C[C@H]3C2=O)ncc1C1(n2cc(C(=O)N[C@H]3C[C@@H](c4cc(Cl)ccc4C#N)C3)cn2)CC1 [Example 159, N-((cis)-3-(5-chloro-2-cyanophenyl)cyclobutyl)-1-(1-(4-methyl-6-((1R,5S)-2-oxo-3-azabicyclo[3.1.0]hexan-3-yl)pyridin-3-yl)cyclopropyl)-1H-pyrazole-4-carboxamide] | 1.7
2 | CC(c1cnc(N2C[C@H]3C[C@H]3C2=O)nc1)n1cc(C(=O)N[C@H]2C[C@@H](c3cc(Cl)ccc3C#N)C2)c(C#N)n1 (single isomer, unassigned) [Example 17, N-((cis)-3-(5-chloro-2-cyanophenyl)cyclobutyl)-3-cyano-1-((R or S)-1-(2-((1R,5S)-2-oxo-3-azabicyclo[3.1.0]hexan-3-yl)pyrimidin-5-yl)ethyl)-1H-pyrazole-4-carboxamide] | 5.5
3 | N-((cis)-3-(5-chloro-2-cyanophenyl)cyclobutyl)-1-((R)-3-((1R,5S)-2-oxo-3-azabicyclo[3.1.0]hexan-3-yl)-6,7-dihydro-5H-cyclopenta[c]pyridin-7-yl)-1H-1,2,3-triazole-4-carboxamide and N-((cis)-3-(5-chloro-2-cyanophenyl)cyclobutyl)-1-((S)-3-((1R,5S)-2-oxo-3-azabicyclo[3.1.0]hexan-3-yl)-6,7-dihydro-5H-cyclopenta[c]pyridin-7-yl)-1H-1,2,3-triazole-4-carboxamide [Example 153] | 23.9
4 | Cc1cc(N2C[C@H]3C[C@H]3C2=O)ncc1C(C)n1cc(C(=O)N[C@H]2C[C@@H](c3cc(Cl)ccc3C(F)F)C2)nn1 (single isomer, unassigned) [Example 71, N-((cis)-3-(5-chloro-2-(difluoromethyl)phenyl)cyclobutyl)-1-((R or S)-1-(4-methyl-6-((1R,5S)-2-oxo-3-azabicyclo[3.1.0]hexan-3-yl)pyridin-3-yl)ethyl)-1H-1,2,3-triazole-4-carboxamide] | 12.7
5 | Cc1cc(N2C[C@H]3C[C@H]3C2=O)ncc1Cn1cc(C(=O)N[C@H]2C[C@@H](c3cc(Cl)ccc3C#N)C2)cn1 [Example 37, N-((cis)-3-(5-chloro-2-cyanophenyl)cyclobutyl)-1-((4-methyl-6-((1R,5S)-2-oxo-3-azabicyclo[3.1.0]hexan-3-yl)pyridin-3-yl)methyl)-1H-pyrazole-4-carboxamide] | 0.7
6 | Cc1ccc(C#N)c([C@]2(C)C[C@H](NC(=O)c3cn([C@@H](C)c4cnc(N5C[C@H]6C[C@H]6C5=O)c(C)c4C)nn3)C2)c1 [Example 143, N-((cis)-3-(2-cyano-5-methylphenyl)-3-methylcyclobutyl)-1-((S)-1-(4,5-dimethyl-6-((1R,5S)-2-oxo-3-azabicyclo[3.1.0]hexan-3-yl)pyridin-3-yl)ethyl)-1H-1,2,3-triazole-4-carboxamide] | 0.2
7 | Cc1cc(C(C)n2cc(C(=O)N[C@H]3C[C@@H](c4cc(Cl)ccc4C#N)C3)cn2)nnc1N1C[C@H]2C[C@H]2C1=O (single isomer, unassigned) [Example 30, N-((cis)-3-(5-chloro-2-cyanophenyl)cyclobutyl)-1-((R or S)-1-(5-methyl-6-((1R,5S)-2-oxo-3-azabicyclo[3.1.0]hexan-3-yl)pyridazin-3-yl)ethyl)-1H-pyrazole-4-carboxamide] | 2.4
8 | COc1cc(C(C)n2cc(C(=O)N[C@H]3C[C@@](C)(c4cc(Cl)ccc4C#N)C3)nn2)cnc1N1C[C@H]2C[C@H]2C1=O (single isomer, unassigned) [Example 106, N-((cis)-3-(5-chloro-2-cyanophenyl)-3-methylcyclobutyl)-1-((S or R)-1-(5-methoxy-6-((1R,5S)-2-oxo-3-azabicyclo[3.1.0]hexan-3-yl)pyridin-3-yl)ethyl)-1H-1,2,3-triazole-4-carboxamide] | 2.2
9 | CC(c1cnc(N2C[C@H]3C[C@H]3C2=O)c(F)c1)n1cc(C(=O)N[C@H]2C[C@@H](c3cc(Cl)ccc3C#N)C2)nn1 (single isomer, unassigned) [Example 104, N-((cis)-3-(5-chloro-2-cyanophenyl)cyclobutyl)-1-((S or R)-1-(5-fluoro-6-((1R,5S)-2-oxo-3-azabicyclo[3.1.0]hexan-3-yl)pyridin-3-yl)ethyl)-1H-1,2,3-triazole-4-carboxamide] | 4.3

Further lines, results first:

Row | IC50 [nM] | Compound
10 | 1 | COc1cc(C(C)n2cc(C(=O)N[C@H]3C[C@@H](c4cc(Cl)ccc4C#N)C3)cn2)cnc1N1C[C@H]2C[C@H]2C1=O (single isomer, unassigned) [Example 13, N-((cis)-3-(5-chloro-2-cyanophenyl)cyclobutyl)-1-((R or S)-1-(5-methoxy-6-((1R,5S)-2-oxo-3-azabicyclo[3.1.0]hexan-3-yl)pyridin-3-yl)ethyl)-1H-pyrazole-4-carboxamide]
11 | 84.4 | Cc1ccnc([C@H]2C[C@@H](NC(=O)c3cnn(C(C)c4cnc(N5C[C@H]6C[C@H]6C5=O)cc4C)c3)C2)c1 (single isomer, unassigned) [Example 33, 1-((S or R)-1-(4-methyl-6-((1R,5S)-2-oxo-3-azabicyclo[3.1.0]hexan-3-yl)pyridin-3-yl)ethyl)-N-((cis)-3-(4-methylpyridin-2-yl)cyclobutyl)-1H-pyrazole-4-carboxamide]
12 | 6.7 | CC(c1cnc(N2C[C@H]3C[C@H]3C2=O)nc1)n1cc(C(=O)N[C@H]2C[C@@H](c3cc(Cl)ccc3C#N)C2)cn1 (single isomer, unassigned) [Example 3, N-((cis)-3-(5-chloro-2-cyanophenyl)cyclobutyl)-1-((R or S)-1-(2-((1R,5S)-2-oxo-3-azabicyclo[3.1.0]hexan-3-yl)pyrimidin-5-yl)ethyl)-1H-pyrazole-4-carboxamide]
13 | 702 | Cc1ccc(C#N)c([C@H]2C[C@@H](NC(=O)c3cn(C(C)c4nnc(N5C[C@H]6C[C@H]6C5=O)c(C)c4C)nn3)C2)n1 (single isomer, unassigned) [Example 127, N-((cis)-3-(3-cyano-6-methylpyridin-2-yl)cyclobutyl)-1-((R or S)-1-(4,5-dimethyl-6-((1R,5S)-2-oxo-3-azabicyclo[3.1.0]hexan-3-yl)pyridazin-3-yl)ethyl)-1H-1,2,3-triazole-4-carboxamide]
14 | 107 | Cc1cc(N2C[C@H]3C[C@H]3C2=O)ncc1C(C)n1cc(C(=O)N[C@H]2C[C@@H](c3cc(Cl)ccn3)C2)nn1 (single isomer, unassigned) [Example 73, N-((cis)-3-(4-chloropyridin-2-yl)cyclobutyl)-1-((R or S)-1-(4-methyl-6-((1R,5S)-2-oxo-3-azabicyclo[3.1.0]hexan-3-yl)pyridin-3-yl)ethyl)-1H-1,2,3-triazole-4-carboxamide]
15 | 8.6 | N#Cc1ccc(Cl)cc1[C@H]1C[C@@H](NC(=O)c2cnn(Cc3cnc(N4C[C@@H]5C[C@@H]5C4=O)nc3)c2)C1 (stereo in doubt) [Example 1, N-((cis)-3-(5-chloro-2-cyanophenyl)cyclobutyl)-1-((2-((1S,5R)-2-oxo-3-azabicyclo[3.1.0]hexan-3-yl)pyrimidin-5-yl)methyl)-1H-pyrazole-4-carboxamide]
16 | 11.1 | Cc1cc(N2C[C@H]3C[C@H]3C2=O)ncc1C(C)n1cc(C(=O)NC2CC(c3cc(Cl)ccc3C#N)C2)c([C@H](C)O)n1 (stereo in doubt) [Example 172, N-((cis)-3-(5-chloro-2-cyanophenyl)cyclobutyl)-3-((S)-1-hydroxyethyl)-1-((S)-1-(4-methyl-6-((1R,5S)-2-oxo-3-azabicyclo[3.1.0]hexan-3-yl)pyridin-3-yl)ethyl)-1H-pyrazole-4-carboxamide]
17 | 5.6 | Cc1cc(N2C[C@H]3C[C@H]3C2=O)ncc1C(C)n1cc(C(=O)NC2CC(c3cc(Cl)ccc3C#N)C2)c(C(C)O)n1 (single isomer, unassigned) [Example 171]
18 | 0.6 | Cc1cc([C@@H](C)n2cc(C(=O)N[C@H]3C[C@@H](c4cc(Cl)ccc4C#N)C3)nn2)cnc1N1C[C@H]2C[C@H]2C1=O (single isomer, unassigned) [Example 55]
19 | 46.7 | Cc1c([C@H](C)n2cc(C(=O)N[C@H]3C[C@@H](c4cc(Cl)ccc4C#N)C3)nn2)cnc(N2C[C@H]3C[C@H]3C2=O)c1O (relative stereo) [Example 164, N-((cis)-3-(5-chloro-2-cyanophenyl)cyclobutyl)-1-((S)-1-(5-hydroxy-4-methyl-6-((1R,5S)-2-oxo-3-azabicyclo[3.1.0]hexan-3-yl)pyridin-3-yl)ethyl)-1H-12,3-triazole-4-carboxamide]
20 | 2 | COc1cc(C(C)n2cc(C(=O)N[C@H]3C[C@@H](c4cc(Cl)ccc4C#N)C3)nn2)cnc1N1C[C@H]2C[C@H]2C1=O (mixture of isomers) [Example 100, N-((cis)-3-(5-chloro-2-cyanophenyl)cyclobutyl)-1-((R and S)-1-(5-methoxy-6-((1R,5S)-2-oxo-3-azabicyclo[3.1.0]hexan-3-yl)pyridin-3-yl)ethyl)-1H-1,2,3-triazole-4-carboxamide]
